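Test compounds were applied to cells in 96-well plates for 48 hours at 5 doses. GI50: concentration for 50% inhibition of growth. TGI is the concentration that stops growth completely.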 A value given as a limit tells only on which side of the number the result lay.

Among the data in PubChem BioAssay (NCI) are TGI and GI50 values, retold here.

Test systems include A549 NSCLC; ACHN renal; CAKI-1 renal; HCT-116 colon; HT29 colon; NCI-H226 lung; NCI-H23 lung; UACC-257 melanoma; SR leukemia.
Holding throughout (assay): DTP human tumour cell line panel, 48 h

Consider `O=c1cccccc1NCCCCCCNc1cccccc1=O`, for which the TGI in the assay with A549 NSCLC, in the assay with ACHN renal, with CAKI-1 renal, in the assay with HCT-116 colon, with HT29 colon and with NCI-H226 lung was greater than 100 µM throughout. Moreover, the TGI with NCI-H23 lung and in the assay on UACC-257 melanoma was greater than 100 µM each time.

As for `CC(=O)O[C@]1(C)OC(=O)[C@@H](C)N1[N+](=O)[O-]`, the TGI in the assay with A549 NSCLC, with ACHN renal, in the assay on HCT-116 colon, with HT29 colon, in the assay with NCI-H226 lung and with NCI-H23 lung was greater than 100 µM in each case. Moreover, the TGI with SR leukemia and in the assay on UACC-257 melanoma was greater than 100 µM in each case.

Consider `CC(C)(C)CC(C)(C)c1cc2c(O)c(c1)Cc1cc(C(C)(C)CC(C)(C)C)cc(c1O)Cc1cc(C(C)(C)CC(C)(C)C)cc(c1O)Cc1cc(C(C)(C)CC(C)(C)C)cc(c1O)Cc1cc(C(C)(C)CC(C)(C)C)cc(c1O)Cc1cc(C(C)(C)CC(C)(C)C)cc(c1O)C2`, for which the total growth inhibition concentration (TGI) in the assay with A549 NSCLC, with ACHN renal, in the assay on HCT-116 colon, in the assay with HT29 colon, in the assay on NCI-H23 lung and in the assay on UACC-257 melanoma was greater than 100 µM throughout.

Turning to `O=C(O)Cc1cccc2c1Oc1ccccc1S2`, the total growth inhibition concentration (TGI) with A549 NSCLC, in the assay on ACHN renal, in the assay on HCT-116 colon, in the assay on HT29 colon, in the assay on NCI-H226 lung and in the assay with NCI-H23 lung was greater than 100 µM each time. Moreover, the concentration for total growth inhibition (TGI) (as a rule, the concentration at which net growth stops) with UACC-257 melanoma is greater than 100 µM.

Take `O=C(c1ccccc1)c1ccc(OCCOc2ccc(Nc3ccccc3)cc2)cc1`: the TGI in the assay with A549 NSCLC is greater than 100 µM; with ACHN renal, 84.3 µM; in the assay on CAKI-1 renal it was greater than 100 µM; with HCT-116 colon, greater than 100 µM; in the assay with NCI-H226 lung, greater than 100 µM; in the assay with NCI-H23 lung, greater than 100 µM. The TGI with SR leukemia and in the assay with UACC-257 melanoma was greater than 100 µM in each case.

Turning to `CN=C(NC#N)NCCSCc1nc[nH]c1C`, the TGI in the assay on A549 NSCLC, in the assay on ACHN renal, in the assay on CAKI-1 renal, in the assay on HCT-116 colon, in the assay with HT29 colon and with NCI-H226 lung was greater than 100 µM throughout. The TGI in the assay with NCI-H23 lung, with SR leukemia and in the assay with UACC-257 melanoma was greater than 100 µM each time.

As for `O=C1CCCC/C1=C1\C(=O)Nc2cc(F)ccc21`, the TGI in the assay with A549 NSCLC, in the assay with ACHN renal, in the assay on CAKI-1 renal, in the assay with HCT-116 colon, in the assay on HT29 colon and with NCI-H226 lung was greater than 100 µM in each case. For the same compound, the total growth inhibition concentration (TGI) in the assay on NCI-H23 lung and in the assay on UACC-257 melanoma was greater than 100 µM throughout.

As to `CCSC1(SCC)CC(Cc2ccc(OC)cc2)N(C=NC(C)(C)C)C1` (stereo not drawn), the TGI is greater than 100 µM in the assay on A549 NSCLC; greater than 100 µM with ACHN renal; greater than 100 µM in the assay on CAKI-1 renal; 92.8 µM in the assay on HCT-116 colon; 51.5 µM with HT29 colon; greater than 100 µM in the assay with NCI-H226 lung. For the same compound, the total growth inhibition concentration (TGI) came to 43.3 µM in the assay on NCI-H23 lung, 34.2 µM with SR leukemia and 47.5 µM in the assay on UACC-257 melanoma.

As to `COc1c(NC(C)=O)cc(C)cc1NC(C)=O`, the total growth inhibition concentration (TGI) with A549 NSCLC, in the assay with ACHN renal, in the assay with CAKI-1 renal, in the assay with HCT-116 colon, in the assay on SR leukemia and in the assay on UACC-257 melanoma was greater than 100 µM each time.

In the case of `CCCCCCCCOC(CO)CO`, the total growth inhibition concentration (TGI) in the assay on A549 NSCLC, in the assay on ACHN renal, in the assay on CAKI-1 renal, with HCT-116 colon, in the assay on HT29 colon and with NCI-H226 lung was greater than 100 µM throughout. Further, the TGI in the assay with NCI-H23 lung, with SR leukemia and with UACC-257 melanoma was greater than 100 µM throughout.

In the case of `C1C[S][Ge]2([S]CCO1)[S]CCOCC[S]2`, the GI50 with ACHN renal, in the assay on CAKI-1 renal, in the assay with HCT-116 colon, in the assay with NCI-H226 lung, in the assay with NCI-H23 lung and with SR leukemia was greater than 100 µM each time. In addition, the TGI in the assay with ACHN renal, with CAKI-1 renal, with HCT-116 colon, in the assay with NCI-H226 lung, in the assay with NCI-H23 lung and in the assay on SR leukemia was greater than 100 µM each time.

With `Cc1c(-c2nnc(-c3ccc(Cl)cc3)o2)c(=O)n(-c2ccccc2)n1C`, the TGI in the assay on A549 NSCLC, in the assay with ACHN renal, in the assay with HCT-116 colon, with HT29 colon, with NCI-H226 lung and in the assay with NCI-H23 lung was greater than 100 µM each time. Further, the TGI in the assay with SR leukemia and in the assay on UACC-257 melanoma was greater than 100 µM throughout.

On to `COc1ccc2c3c(n(Cc4ccccc4)c(=O)c2c1)-c1cc(OC)c(OC)cc1C3C` (stereo not drawn), for which the TGI in the assay on A549 NSCLC was greater than 100 µM; in the assay on ACHN renal, 43.9 µM; in the assay with CAKI-1 renal, greater than 100 µM; in the assay on HCT-116 colon, greater than 100 µM; in the assay with HT29 colon, greater than 84.8 µM; with NCI-H226 lung, greater than 75.9 µM. Further, the TGI in the assay on NCI-H23 lung, with SR leukemia and with UACC-257 melanoma was greater than 100 µM in each case.

`O=C1N(c2ccccc2)C(=O)C2(SC=NN2Cc2ccccc2)N1c1ccccc1` (stereo not drawn): the TGI in the assay with A549 NSCLC, with ACHN renal, with CAKI-1 renal, in the assay with HCT-116 colon, in the assay on HT29 colon and in the assay on NCI-H226 lung was greater than 100 µM in each case. Moreover, the TGI in the assay with NCI-H23 lung, in the assay on SR leukemia and in the assay on UACC-257 melanoma was greater than 100 µM each time.

Turning to `CC1(C)OC(C[C@]2(C#N)C[C@H](CCl)OC(C)(C)O2)C[C@@H](C[C@]2(C#N)C[C@H](CCl)OC(C)(C)O2)O1` (stereo partly drawn), the concentration for total growth inhibition (TGI) in the assay on A549 NSCLC, in the assay on ACHN renal, with CAKI-1 renal, in the assay with HCT-116 colon, with HT29 colon and in the assay with NCI-H226 lung was greater than 100 µM in each case. In addition, the concentration for total growth inhibition (TGI) in the assay with NCI-H23 lung, with SR leukemia and in the assay with UACC-257 melanoma was greater than 100 µM throughout.

`COc1ccc(C(=O)C(C(=O)C(=O)Nc2ccc(Cl)c(Cl)c2)c2ccc(OC)cc2)cc1` (stereo not drawn): the TGI in the assay on A549 NSCLC, with ACHN renal, in the assay on CAKI-1 renal, in the assay on HCT-116 colon, in the assay on HT29 colon and in the assay on NCI-H226 lung was greater than 100 µM throughout. The TGI in the assay with NCI-H23 lung and in the assay on UACC-257 melanoma was greater than 100 µM each time.
